Data as given in ChEMBL document CHEMBL3885861, “Open TG-GATES”.

Species on record: Rattus norvegicus
Assay: Open TG-GATES - Regimen: Daily Repeat
Assay type: toxicity, organism-based, Sprague-Dawley
Design: regimen Daily Repeat, gender Male, age 6 weeks
Conditions: in vivo, po, route gavage; for APTT / Bas / Eos / Fbg / Hb / Ht / Lym / MCH / MCHC / MCV / Mono / Neu / PT / Plat / RBC / Ret / WBC: tissue Blood; for KIDNEY_L / KIDNEY_R / KIDNEY_TOTAL: tissue Kidney; for LIVER: tissue Liver; for A/G / ALP / ALT / AST / BUN / CRE / Ca / Cl / DBIL / GLC / IP / K / LDH / Na / PL / RALB / TBIL / TC / TG / TP / gamma-GTP: tissue Plasma
[1] = 0 mg/kg, 72 h, dose level Control, time 3 day
[2] = 0 mg/kg, […], dose level Control, time 7 day
[3] = 0 mg/kg, […], dose level Control, time 14 day
[4] = 0 mg/kg, […], dose level Control, time 28 day
[5] = 50 mg/kg, 72 h, dose level Low, time 3 day
[6] = 50 mg/kg, […], dose level Low, time 7 day
[7] = 50 mg/kg, […], dose level Low, time 14 day
[8] = 50 mg/kg, […], dose level Low, time 28 day

## CN1C(=O)OC(C)(C)C1=O [TRIMETHADIONE]
[1]
  TERMINAL_BW: 243.9 g
  APTT: 17 s
  Bas: 0%
  Eos: 0.8%
  Fbg: 265 mg/dL
  Hb: 13.7 g/dL
  Ht: 41%
  Lym: 79.8%
  MCH: 21.4 pg
  MCHC: 33.4%
  MCV: 64.2 fL
  Mono: 2.6%
  Neu: 16.4%
  PT: 13.3 s
  Plat: 131 x10_4/uL
  RBC: 639.2 x10_4/ul
  Ret: 7.2%
  WBC: 85.5 x10_2/uL
  KIDNEY_L: 1 g
  KIDNEY_R: 1 g
  KIDNEY_TOTAL: 2 g
  LIVER: 11.2 g
  A/G: 0.8
  ALP: 1967.6 IU/L
  ALT: 47.4 IU/L
  AST: 78 IU/L
  BUN: 15 mg/dL
  CRE: 0.2 mg/dL
  Ca: 11.2 mg/dL
  Cl: 106 meq/L
  DBIL: 0.006 mg/dL
  GLC: 180.6 mg/dL
  IP: 7 mg/dL
  K: 4.6 meq/L
  LDH: 109.4 IU/L
  Na: 141.6 meq/L
  PL: 166.6 mg/dL
  RALB: 2.6 g/dL
  TBIL: 0.05 mg/dL
  TC: 83.6 mg/dL
  TG: 141.8 mg/dL
  TP: 5.7 g/dL
  gamma-GTP: 1 IU/L
[2]
  TERMINAL_BW: 282.3 g
  APTT: 17.7 s
  Bas: 0.6%
  Eos: 1%
  Fbg: 263.8 mg/dL
  Hb: 13.8 g/dL
  Ht: 41%
  Lym: 79.4%
  MCH: 21.4 pg
  MCHC: 33.6%
  MCV: 63.9 fL
  Mono: 2.4%
  Neu: 16.4%
  PT: 13.9 s
  Plat: 123.3 x10_4/uL
  RBC: 641.8 x10_4/ul
  Ret: 5.8%
  WBC: 89.3 x10_2/uL
  KIDNEY_L: 1.1 g
  KIDNEY_R: 1.1 g
  KIDNEY_TOTAL: 2.3 g
  LIVER: 12.5 g
  A/G: 0.8
  ALP: 1722.8 IU/L
  ALT: 38.2 IU/L
  AST: 67.4 IU/L
  BUN: 16.8 mg/dL
  CRE: 0.2 mg/dL
  Ca: 11 mg/dL
  Cl: 105.2 meq/L
  DBIL: 0.01 mg/dL
  GLC: 191.8 mg/dL
  IP: 6.9 mg/dL
  K: 4.1 meq/L
  LDH: 107.8 IU/L
  Na: 144 meq/L
  PL: 165.4 mg/dL
  RALB: 2.6 g/dL
  TBIL: 0.052 mg/dL
  TC: 85.6 mg/dL
  TG: 109 mg/dL
  TP: 5.8 g/dL
  gamma-GTP: 1 IU/L
[3]
  TERMINAL_BW: 333.6 g
  APTT: 19.5 s
  Bas: 0.4%
  Eos: 1.2%
  Fbg: 284.6 mg/dL
  Hb: 14.9 g/dL
  Ht: 43.9%
  Lym: 77.8%
  MCH: 20.8 pg
  MCHC: 33.9%
  MCV: 61.2 fL
  Mono: 2%
  Neu: 18.6%
  PT: 13.4 s
  Plat: 127.4 x10_4/uL
  RBC: 719 x10_4/ul
  Ret: 4.4%
  WBC: 99.3 x10_2/uL
  KIDNEY_L: 1.2 g
  KIDNEY_R: 1.2 g
  KIDNEY_TOTAL: 2.4 g
  LIVER: 14.3 g
  A/G: 0.8
  ALP: 1703.8 IU/L
  ALT: 42 IU/L
  AST: 73.8 IU/L
  BUN: 17.2 mg/dL
  CRE: 0.2 mg/dL
  Ca: 10.8 mg/dL
  Cl: 107.2 meq/L
  DBIL: 0.004 mg/dL
  GLC: 208.2 mg/dL
  IP: 6.8 mg/dL
  K: 3.9 meq/L
  LDH: 98.8 IU/L
  Na: 145.6 meq/L
  PL: 164.6 mg/dL
  RALB: 2.7 g/dL
  TBIL: 0.042 mg/dL
  TC: 80.8 mg/dL
  TG: 128.8 mg/dL
  TP: 6 g/dL
  gamma-GTP: 1 IU/L
[4]
  TERMINAL_BW: 429.2 g
  APTT: 17.5 s
  Bas: 0%
  Eos: 1.2%
  Fbg: 265.2 mg/dL
  Hb: 15.4 g/dL
  Ht: 44.4%
  Lym: 78.4%
  MCH: 19.8 pg
  MCHC: 34.8%
  MCV: 57.1 fL
  Mono: 1.6%
  Neu: 18.2%
  PT: 13.7 s
  Plat: 109.9 x10_4/uL
  RBC: 778.2 x10_4/ul
  Ret: 2.6%
  WBC: 114 x10_2/uL
  KIDNEY_L: 1.5 g
  KIDNEY_R: 1.5 g
  KIDNEY_TOTAL: 2.9 g
  LIVER: 16.8 g
  A/G: 0.8
  ALP: 1156.4 IU/L
  ALT: 35 IU/L
  AST: 62.6 IU/L
  BUN: 15 mg/dL
  CRE: 0.2 mg/dL
  Ca: 10.8 mg/dL
  Cl: 105.6 meq/L
  DBIL: 0.004 mg/dL
  GLC: 183.8 mg/dL
  IP: 6 mg/dL
  K: 4 meq/L
  LDH: 64.2 IU/L
  Na: 142.6 meq/L
  PL: 159.8 mg/dL
  RALB: 2.8 g/dL
  TBIL: 0.048 mg/dL
  TC: 73.6 mg/dL
  TG: 188.4 mg/dL
  TP: 6.3 g/dL
  gamma-GTP: 1 IU/L
[5]
  TERMINAL_BW: 239.4 g
  APTT: 17.8 s
  Bas: 0%
  Eos: 1%
  Fbg: 290.4 mg/dL
  Hb: 13.8 g/dL
  Ht: 41%
  Lym: 74.8%
  MCH: 21.2 pg
  MCHC: 33.6%
  MCV: 63.2 fL
  Mono: 3%
  Neu: 20.8%
  PT: 13 s
  Plat: 127.3 x10_4/uL
  RBC: 649 x10_4/ul
  Ret: 6.9%
  WBC: 101.6 x10_2/uL
  KIDNEY_L: 1 g
  KIDNEY_R: 1 g
  KIDNEY_TOTAL: 2 g
  LIVER: 11.2 g
  A/G: 0.9
  ALP: 1701.8 IU/L
  ALT: 40.4 IU/L
  AST: 73.8 IU/L
  BUN: 15.2 mg/dL
  CRE: 0.2 mg/dL
  Ca: 11.1 mg/dL
  Cl: 106.4 meq/L
  DBIL: 0.008 mg/dL
  GLC: 178.4 mg/dL
  IP: 6.8 mg/dL
  K: 4.7 meq/L
  LDH: 87.2 IU/L
  Na: 141.6 meq/L
  PL: 166 mg/dL
  RALB: 2.6 g/dL
  TBIL: 0.05 mg/dL
  TC: 83 mg/dL
  TG: 123.8 mg/dL
  TP: 5.7 g/dL
  gamma-GTP: 1 IU/L
[6]
  TERMINAL_BW: 283.2 g
  APTT: 18.9 s
  Bas: 0%
  Eos: 1.2%
  Fbg: 255.8 mg/dL
  Hb: 13.9 g/dL
  Ht: 41.1%
  Lym: 74.6%
  MCH: 21.1 pg
  MCHC: 33.9%
  MCV: 62.2 fL
  Mono: 2.2%
  Neu: 21.8%
  PT: 13.7 s
  Plat: 137 x10_4/uL
  RBC: 660.4 x10_4/ul
  Ret: 5.5%
  WBC: 92.6 x10_2/uL
  KIDNEY_L: 1.2 g
  KIDNEY_R: 1.2 g
  KIDNEY_TOTAL: 2.4 g
  LIVER: 13.1 g
  A/G: 0.8
  ALP: 1932.2 IU/L
  ALT: 44.4 IU/L
  AST: 76.8 IU/L
  BUN: 16.6 mg/dL
  CRE: 0.2 mg/dL
  Ca: 10.9 mg/dL
  Cl: 105.4 meq/L
  DBIL: 0.006 mg/dL
  GLC: 187.8 mg/dL
  IP: 7 mg/dL
  K: 4.2 meq/L
  LDH: 79.6 IU/L
  Na: 143 meq/L
  PL: 158 mg/dL
  RALB: 2.6 g/dL
  TBIL: 0.046 mg/dL
  TC: 75 mg/dL
  TG: 113.6 mg/dL
  TP: 5.8 g/dL
  gamma-GTP: 1.2 IU/L
[7]
  TERMINAL_BW: 331.1 g
  APTT: 21.8 s
  Bas: 0.2%
  Eos: 1%
  Fbg: 271.2 mg/dL
  Hb: 14.9 g/dL
  Ht: 43.7%
  Lym: 76%
  MCH: 20.9 pg
  MCHC: 34.2%
  MCV: 61.3 fL
  Mono: 2.2%
  Neu: 20.6%
  PT: 13.4 s
  Plat: 118 x10_4/uL
  RBC: 712.8 x10_4/ul
  Ret: 4.1%
  WBC: 104.6 x10_2/uL
  KIDNEY_L: 1.3 g
  KIDNEY_R: 1.3 g
  KIDNEY_TOTAL: 2.6 g
  LIVER: 13.8 g
  A/G: 0.8
  ALP: 1421.4 IU/L
  ALT: 40.4 IU/L
  AST: 71.2 IU/L
  BUN: 16.2 mg/dL
  CRE: 0.2 mg/dL
  Ca: 10.7 mg/dL
  Cl: 105.2 meq/L
  DBIL: 0.002 mg/dL
  GLC: 182.6 mg/dL
  IP: 6.9 mg/dL
  K: 4.3 meq/L
  LDH: 131.4 IU/L
  Na: 144.4 meq/L
  PL: 159 mg/dL
  RALB: 2.7 g/dL
  TBIL: 0.04 mg/dL
  TC: 72.4 mg/dL
  TG: 112.8 mg/dL
  TP: 6 g/dL
  gamma-GTP: 1 IU/L
[8]
  TERMINAL_BW: 426.4 g
  APTT: 19.5 s
  Bas: 0.4%
  Eos: 1.4%
  Fbg: 257.6 mg/dL
  Hb: 15.7 g/dL
  Ht: 45.3%
  Lym: 80.2%
  MCH: 19.8 pg
  MCHC: 34.6%
  MCV: 57.3 fL
  Mono: 2%
  Neu: 15.4%
  PT: 13.9 s
  Plat: 108.7 x10_4/uL
  RBC: 789.4 x10_4/ul
  Ret: 2.4%
  WBC: 118.6 x10_2/uL
  KIDNEY_L: 1.5 g
  KIDNEY_R: 1.5 g
  KIDNEY_TOTAL: 3 g
  LIVER: 16.2 g
  A/G: 0.8
  ALP: 1126.4 IU/L
  ALT: 33.8 IU/L
  AST: 63.8 IU/L
  BUN: 16.6 mg/dL
  CRE: 0.3 mg/dL
  Ca: 10.7 mg/dL
  Cl: 104 meq/L
  DBIL: 0.006 mg/dL
  GLC: 180.2 mg/dL
  IP: 5.3 mg/dL
  K: 4.3 meq/L
  LDH: 69.8 IU/L
  Na: 142 meq/L
  PL: 162 mg/dL
  RALB: 2.8 g/dL
  TBIL: 0.042 mg/dL
  TC: 73.6 mg/dL
  TG: 186.6 mg/dL
  TP: 6.2 g/dL
  gamma-GTP: 1.2 IU/L
